Calls of active or inactive are those of the source. How the calls were made is not given here.
Tested on: CCRIS mutagenicity, Ames/micronucleus/aberration tests
Experiment: CCRIS mutagenicity studies

Measured: mutagenic call

CCCCC(CC)COC(=O)c1ccccc1C(=O)OCC(CC)CCCC (stereo not drawn)
inactive: End Point: IN VITRO MICRONUCLEUS, Test System: V79 CELLS, Metabolic Activation: NONE inactive; negative | End Point: IN VITRO MICRONUCLEUS, Test System: V79 CELLS, Metabolic Activation: RAT, LIVER, S-9, AROCLOR 1254 inactive; negative | End Point: IN VIVO MICRONUCLEUS, Test System: HEPATOCYTES, Species: RAT, Strain/Sex: FISHER 344 OR SD/MALE, Route: ORAL OR IP inactive; negative | End Point: IN VIVO MICRONUCLEUS, Test System: PERIPHERAL BLOOD RETICULOCYTES, Species: RAT, Strain/Sex: FISHER 344 OR SD/MALE, Route: ORAL OR IP inactive; negative | Test System: AMES SALMONELLA TYPHIMURIUM, Strain/Indicator: TA97, Metabolic Activation: HAMSTER LIVER S-9, AROCLOR 1254 (10 OR 30%), Method: PREINCUBATION inactive; negative | Test System: AMES SALMONELLA TYPHIMURIUM, Strain/Indicator: TA97, Metabolic Activation: NONE, Method: PREINCUBATION inactive; negative | Test System: AMES SALMONELLA TYPHIMURIUM, Strain/Indicator: TA97, Metabolic Activation: NONE, Method: STANDARD PLATE inactive; negative | Test System: AMES SALMONELLA TYPHIMURIUM, Strain/Indicator: TA97, Metabolic Activation: RAT LIVER S-9, AROCLOR 1254 (10 OR 30%), Method: PREINCUBATION inactive; negative | Test System: AMES SALMONELLA TYPHIMURIUM, Strain/Indicator: TA97, Metabolic Activation: S-9, Method: STANDARD PLATE inactive; negative | Test System: AMES SALMONELLA TYPHIMURIUM, Strain/Indicator: TA98, Metabolic Activation: HAMSTER LIVER S-9, AROCLOR 1254 (10 OR 30%), Method: PREINCUBATION inactive; negative | Test System: AMES SALMONELLA TYPHIMURIUM, Strain/Indicator: TA98, Metabolic Activation: HAMSTER, LIVER, S-9, AROCLOR 1254 (10%), Method: PREINCUBATION inactive; negative | Test System: AMES SALMONELLA TYPHIMURIUM, Strain/Indicator: TA98, Metabolic Activation: NONE, Method: FLUCTUATION (MICROTITER) inactive; negative | Test System: AMES SALMONELLA TYPHIMURIUM, Strain/Indicator: TA98, Metabolic Activation: NONE, Method: STANDARD PLATE inactive; negative | Test System: AMES SALMONELLA TYPHIMURIUM, Strain/Indicator: TA98, Metabolic Activation: RAT LIVER S-9, AROCLOR 1254 (10 OR 30%), Method: PREINCUBATION inactive; negative | Test System: AMES SALMONELLA TYPHIMURIUM, Strain/Indicator: TA98, Metabolic Activation: RAT LIVER S-9, AROCLOR 1254, Method: FLUCTUATION (MICROTITER) inactive; negative | Test System: AMES SALMONELLA TYPHIMURIUM, Strain/Indicator: TA98, Metabolic Activation: RAT LIVER S-9, PHENOBARBITAL AND BETA-NAPHTHOFLAVONE, Method: PREINCUBATION inactive; negative | Test System: AMES SALMONELLA TYPHIMURIUM, Strain/Indicator: TA98, Metabolic Activation: RAT, LIVER, S-9, AROCLOR 1254 (10%), Method: PREINCUBATION inactive; negative | Test System: AMES SALMONELLA TYPHIMURIUM, Strain/Indicator: TA98, Metabolic Activation: RAT, LIVER, S-9, AROCLOR 1254, Method: STANDARD PLATE inactive; negative | Test System: AMES SALMONELLA TYPHIMURIUM, Strain/Indicator: TA98, Metabolic Activation: S-9, Method: STANDARD PLATE inactive; negative | Test System: AMES SALMONELLA TYPHIMURIUM, Strain/Indicator: TA100, Metabolic Activation: HAMSTER LIVER S-9, AROCLOR 1254 (10 OR 30%), Method: PREINCUBATION inactive; negative | Test System: AMES SALMONELLA TYPHIMURIUM, Strain/Indicator: TA100, Metabolic Activation: HAMSTER, LIVER, S-9, AROCLOR 1254 (10%), Method: PREINCUBATION inactive; negative | Test System: AMES SALMONELLA TYPHIMURIUM, Strain/Indicator: TA100, Metabolic Activation: NONE, Method: STANDARD PLATE inactive; negative | Test System: AMES SALMONELLA TYPHIMURIUM, Strain/Indicator: TA100, Metabolic Activation: RAT LIVER S-9, AROCLOR 1254 (10 OR 30%), Method: PREINCUBATION inactive; negative | Test System: AMES SALMONELLA TYPHIMURIUM, Strain/Indicator: TA100, Metabolic Activation: RAT LIVER S-9, PHENOBARBITAL AND BETA-NAPHTHOFLAVONE, Method: PREINCUBATION inactive; negative | Test System: AMES SALMONELLA TYPHIMURIUM, Strain/Indicator: TA100, Metabolic Activation: RAT, LIVER, S-9, AROCLOR 1254 (10%), Method: PREINCUBATION inactive; negative | Test System: AMES SALMONELLA TYPHIMURIUM, Strain/Indicator: TA100, Metabolic Activation: RAT, LIVER, S-9, AROCLOR 1254, Method: STANDARD PLATE inactive; negative | Test System: AMES SALMONELLA TYPHIMURIUM, Strain/Indicator: TA100, Metabolic Activation: S-9, Method: STANDARD PLATE inactive; negative | Test System: AMES SALMONELLA TYPHIMURIUM, Strain/Indicator: TA102, Metabolic Activation: CO631 CELLS, Method: STANDARD PLATE inactive; negative | Test System: AMES SALMONELLA TYPHIMURIUM, Strain/Indicator: TA102, Metabolic Activation: NONE, Method: STANDARD PLATE inactive; negative | Test System: AMES SALMONELLA TYPHIMURIUM, Strain/Indicator: TA102, Metabolic Activation: PANCREATIN, Method: STANDARD PLATE inactive; negative | Test System: AMES SALMONELLA TYPHIMURIUM, Strain/Indicator: TA102, Metabolic Activation: PORCINE, PANCREAS, LIPASES, Method: STANDARD PLATE inactive; negative | Test System: AMES SALMONELLA TYPHIMURIUM, Strain/Indicator: TA102, Metabolic Activation: RAT HEPATOCYTES, Method: STANDARD PLATE inactive; negative | Test System: AMES SALMONELLA TYPHIMURIUM, Strain/Indicator: TA102, Metabolic Activation: RAT LIVER S-9, PHENOBARBITAL AND 5,6-BENZOFLAVONE, Method: STANDARD PLATE inactive; negative | Test System: AMES SALMONELLA TYPHIMURIUM, Strain/Indicator: TA102, Metabolic Activation: S-9, Method: STANDARD PLATE inactive; negative | Test System: AMES SALMONELLA TYPHIMURIUM, Strain/Indicator: TA1535, Metabolic Activation: HAMSTER LIVER S-9, AROCLOR 1254 (10 OR 30%), Method: PREINCUBATION inactive; negative | Test System: AMES SALMONELLA TYPHIMURIUM, Strain/Indicator: TA1535, Metabolic Activation: HAMSTER, LIVER, S-9, AROCLOR 1254 (10%), Method: PREINCUBATION inactive; negative | Test System: AMES SALMONELLA TYPHIMURIUM, Strain/Indicator: TA1535, Metabolic Activation: NONE, Method: STANDARD PLATE inactive; negative | Test System: AMES SALMONELLA TYPHIMURIUM, Strain/Indicator: TA1535, Metabolic Activation: RAT LIVER S-9, AROCLOR 1254 (10 OR 30%), Method: PREINCUBATION inactive; negative

From PubChem BioAssay AID1259407 (Chemical Carcinogenesis Research Information System (CCRIS), 2018)
